Where two headings read alike, the source gives them in different places. Blank lines part the entries; values can stand above or below the compound they belong to.
What was measured:
B6 BMDMs = test: Cell death kinetics, Sytox Green on Incucyte; assay type: cell-based
B6^Nlrp1b+ BMDMs [1] = test: Cell death kinetics, Sytox Green on Incucyte; assay type: cell-based, mouse; conditions: for time to reach 30% half-maximal level of pyroptosis: VBP: all tested concentrations (10, 25, 40 μM), 1G244: 10 μM
B6^Nlrp1b+ BMDMs [2] = test: Caspase-1 cleavage by immunoblot; assay type: cell-based, mouse; conditions: for caspase-1 maturation to p20 (in words): LPS-primed 3 h, 10 or 40 μM, 4, 8 and 24 h; for caspase-1 maturation (in words): LPS-primed, 4 and 8 h
[3] = tested on: LPS-primed B6^Nlrp1b+ BMDMs; test: IL-1β and IL-18 secretion, Luminex multiplex assay; assay type: cell-based, mouse
B6^Nlrp1b+ BMDMs [4] = test: ASC speck formation, confocal imaging; assay type: cell-based, mouse; conditions: 10 μM; 4 or 8 h
Description: Cells were stained with anti-ASC (1:200) antibody, followed by secondary anti-rabbit DyLight 594 (1:1,000). Then, slides were mounted on ProLong Gold Antifade reagent with DAPI for analysis. For quantification of ASC specks, analyses were performed on a spinning-disk system (Zeiss), using an observer Z.1 microscope equipped with a Yokogawa disk CSU-X1. Fluorescent images were acquired with the use of a Plan-Apochromat 40×/1.4 oil DIC III objective and a Rolera Em-C2 Camera. Tile scanning was performed combining 4 × 5 images for the final mosaic (total area 7.42 mm × 5.91 mm). The maximum intensity projections of the final mosaic were analysed on Volocity 6.3.1 (PerkinElmer) software for the number of cells containing ASC specks. Seven mosaics were quantified per experimental condition from each biological repeat and the data from all repeats were combined. One-way ANOVA with Tukey’s multiple comparisons analysis was performed in GraphPad Prism 6.0 software.

B6^Nlrp1b+ASC^−/− BMDMs [5] = test: Cell death kinetics, Sytox Green on Incucyte; assay type: cell-based, mouse; conditions: 10 μM
B6^Nlrp1b+ASC^−/− BMDMs [6] = test: Caspase-1 cleavage by immunoblot; assay type: cell-based, mouse; conditions: 10 μM; 8 h
[7] = tested on: B6^Nlrp1b+C1^−/−C11^−/−ASC^−/− macrophages; test: Cell death morphology, confocal bright-field imaging; assay type: cell-based, mouse; conditions: 10 μM; 4 h
[8] = tested on: B6^Nlrp1b+GSDMD^−/− macrophages; test: Apoptosis induction, confocal bright-field imaging; assay type: cell-based, mouse; conditions: 10 μM; 4 h
human DPP9 [9] = molecular target: T1, human DPP9 (Homo sapiens, UniProt Q86TI2); conditions: for Inhibitor in lysate / Inhibitor in medium: mouse, 15 min, 10 µM
human DPP9 [10] = molecular target: T1, human DPP9; test: biochemical
Human DPP2 [11] = molecular target: T2, Human DPP2 (Homo sapiens, UniProt Q9UHL4)
Description: (§1) Lys-Ala-paranitroanilide (Lys-Ala-pNA) was used as substrate at a final concentration of 1 mM.

Human DPP2 [12] = molecular target: T2, Human DPP2; test: biochemical
Description: as §1

Human recombinant FAP = molecular target: T3, Human recombinant FAP (Homo sapiens, UniProt Q12884)
T3 sequence (Q12884 26-760 limits assumed): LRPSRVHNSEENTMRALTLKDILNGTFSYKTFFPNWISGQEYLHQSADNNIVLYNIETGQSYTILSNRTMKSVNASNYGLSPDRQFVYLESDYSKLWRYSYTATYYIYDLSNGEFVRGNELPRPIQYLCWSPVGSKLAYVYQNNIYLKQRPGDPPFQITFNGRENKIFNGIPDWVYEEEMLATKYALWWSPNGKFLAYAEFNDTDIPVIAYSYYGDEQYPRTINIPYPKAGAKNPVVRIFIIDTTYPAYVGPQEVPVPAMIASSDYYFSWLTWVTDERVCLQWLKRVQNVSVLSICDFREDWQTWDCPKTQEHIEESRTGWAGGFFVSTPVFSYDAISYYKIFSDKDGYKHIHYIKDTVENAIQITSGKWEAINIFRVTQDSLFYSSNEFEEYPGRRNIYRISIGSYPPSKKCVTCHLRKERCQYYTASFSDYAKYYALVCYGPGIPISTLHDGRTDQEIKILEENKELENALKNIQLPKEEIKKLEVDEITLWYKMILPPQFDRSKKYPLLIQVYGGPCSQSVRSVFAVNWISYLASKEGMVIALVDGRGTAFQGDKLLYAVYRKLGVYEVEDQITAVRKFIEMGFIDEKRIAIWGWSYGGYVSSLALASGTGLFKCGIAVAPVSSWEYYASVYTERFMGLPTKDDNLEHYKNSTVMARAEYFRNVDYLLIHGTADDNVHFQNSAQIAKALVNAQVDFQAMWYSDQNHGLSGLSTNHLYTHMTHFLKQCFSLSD
Description: FAP and PREP were assayed in buffer containing 0.1 M Tris–HCl (pH 8), 300 mM NaF, 1 mM EDTA, 50 mM salicylic acid, and 5 mM DTT.

[13] = tested on: B6^Nlrp1b+C1^−/−C11^−/− macrophages; test: Caspase-8 cleavage by immunoblot; assay type: cell-based, mouse; conditions: 10 μM; 4 h
J774.A1 cells = test: Cell death kinetics, Sytox Green on Incucyte; conditions: 10 μM and 25 μM
[14] = calibration curve in cell lysate
[15] = cell lysate of BMDMs that received 10 µM for 15 min
[16] = medium of BMDMs that received 10 µM for 15 min
[17] = Ic50, calibration curve in cell lysate
[18] = Ic50, calibration curve in medium

T1 sequence (Q86TI2 whole entry): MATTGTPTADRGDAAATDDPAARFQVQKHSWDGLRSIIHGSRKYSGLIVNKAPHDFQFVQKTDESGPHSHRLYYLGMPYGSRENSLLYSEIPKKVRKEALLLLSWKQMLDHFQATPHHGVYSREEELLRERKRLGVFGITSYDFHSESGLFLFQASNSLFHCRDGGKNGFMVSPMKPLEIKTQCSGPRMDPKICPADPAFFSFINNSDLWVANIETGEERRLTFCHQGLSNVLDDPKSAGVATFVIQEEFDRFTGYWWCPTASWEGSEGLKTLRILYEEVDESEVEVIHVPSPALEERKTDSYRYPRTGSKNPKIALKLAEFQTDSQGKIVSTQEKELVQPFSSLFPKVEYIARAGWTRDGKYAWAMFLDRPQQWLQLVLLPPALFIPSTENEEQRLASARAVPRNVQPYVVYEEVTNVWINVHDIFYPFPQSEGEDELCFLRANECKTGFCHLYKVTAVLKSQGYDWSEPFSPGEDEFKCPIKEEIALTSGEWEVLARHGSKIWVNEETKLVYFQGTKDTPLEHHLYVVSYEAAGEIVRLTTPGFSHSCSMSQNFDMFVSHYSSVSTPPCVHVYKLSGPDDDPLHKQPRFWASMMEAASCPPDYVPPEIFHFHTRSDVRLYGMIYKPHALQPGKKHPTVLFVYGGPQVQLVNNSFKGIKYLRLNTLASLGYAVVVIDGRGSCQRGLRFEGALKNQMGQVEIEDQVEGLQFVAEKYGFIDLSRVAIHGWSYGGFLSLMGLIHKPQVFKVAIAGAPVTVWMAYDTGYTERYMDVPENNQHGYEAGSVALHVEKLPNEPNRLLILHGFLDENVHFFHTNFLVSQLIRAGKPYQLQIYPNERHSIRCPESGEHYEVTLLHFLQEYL

caspase-1 maturation (in words) (B6^Nlrp1b+ BMDMs [2]; 1 μM): triggered weak caspase-1 processing
caspase-1 maturation (in words) (B6^Nlrp1b+ASC^−/− BMDMs [6]): blunted
Slope factor (human DPP9 [9]; [14]): 1.30 ± 0.09
Slope factor (human DPP9 [9]; calibration curve in medium): 1.39 ± 0.09
Inhibition (human DPP9 [9]; [15]): 98%
Inhibition (human DPP9 [9]; [16]): 100%
Inhibitor in lysate (human DPP9 [9]): 0.06 µM
Inhibitor in medium (human DPP9 [9]): 1.5 µM
IC50 (human DPP9 [10]; [17]): 10 ± 0.6 nM
IC50 (human DPP9 [10]; [18]): 15.3 ± 0.8 nM
Compound: N[C@@H](CC(=O)N1CCN(C(c2ccc(F)cc2)c2ccc(F)cc2)CC1)C(=O)N1Cc2ccccc2C1 [1G244]
time at which pyroptosis commences (B6 BMDMs; 10 μM or 25 μM): around 10 h
pyroptosis, share of the cell population (B6 BMDMs; by 24 h, 10 μM or 25 μM): ~20%
pyroptosis level (B6 BMDMs; by 24 h, 40 μM): 40%
cell death induction (in words) (B6^Nlrp1b+ BMDMs [1]; 0.1 μM): failed to trigger a cytotoxic response
cell death induction (in words) (B6^Nlrp1b+ BMDMs [1]; 1 μM): induced a reduced level of pyroptosis
plateau of pyroptosis (B6^Nlrp1b+ BMDMs [1]; 10 μM, by 6 h posttreatment): about 60%
time to reach 30% half-maximal level of pyroptosis (B6^Nlrp1b+ BMDMs [1]): ≤ 2 h
caspase-1 maturation to p20 (in words) (B6^Nlrp1b+ BMDMs [2]): efficiently promoted caspase-1 auto-maturation
secretion of IL-1β and IL-18 (in words) ([3]; 10 or 40 μM, 4, 8 or 24 h): potently triggered secretion of IL-1β and IL-18
ASC speck formation (in words) (B6^Nlrp1b+ BMDMs [4]): marked ASC speck formation
reduction of maximal level of pyroptosis compared with ASC-sufficient B6^Nlrp1b+ macrophages (B6^Nlrp1b+ASC^−/− BMDMs [5]): about 50%
cell death (in words) [7]: remained alive and were fully rescued from apoptosis and pyroptosis induction
apoptosis induction (in words) [8]: potently induce apoptosis

Compound: N#C[C@@H]1CCCN1C(=O)[C@@H]1CCCN1C(=O)CCCc1ccccc1 [KYP-2047]
cell death induction (in words) (B6 BMDMs; 10, 25 and 40 μM): none of the listed inhibitors triggered a cell death response
cell death induction (in words) (B6^Nlrp1b+ BMDMs [1]; 10, 25 and 40 μM): none of the listed inhibitors triggered a cell death response

Slope factor (Human DPP2 [11]; [14]): 1.3 ± 0.3
Slope factor (Human DPP2 [11]; calibration curve in medium): 1.4 ± 0.1
Inhibition (Human DPP2 [11]; [15]): 100%
Inhibition (Human DPP2 [11]; [16]): 100%
Inhibitor in lysate (Human DPP2 [11]; mouse, 15 min, 10 µM): 120/66
Inhibitor in medium (Human DPP2 [11]; mouse, 15 min, 10 µM): 52/45
IC50 (Human DPP2 [12]; [17]): 6 ± 1 nM
IC50 (Human DPP2 [12]; [18]): 9.8 ± 0.6 nM
Compound: N[C@@H](CCNCc1ccc(Cl)cc1)C(=O)N1CCCCC1 [UAMC39]
cell death induction (in words) (B6 BMDMs; 10, 25 and 40 μM): none of the listed inhibitors triggered a cell death response
cell death induction (in words) (B6^Nlrp1b+ BMDMs [1]; 10, 25 and 40 μM): none of the listed inhibitors triggered a cell death response

Slope factor (Human recombinant FAP; [14]): 1.21 ± 0.07
Slope factor (Human recombinant FAP; calibration curve in medium): 1.2 ± 0.1
Inhibition (Human recombinant FAP; [15]): 100%
Inhibition (Human recombinant FAP; [16]): 100%
Inhibitor in lysate (Human recombinant FAP; mouse, 15 min, 10 µM): 0.4 µM
Inhibitor in medium (Human recombinant FAP; mouse, 15 min, 10 µM): 8.8 µM
Compound: N#C[C@@H]1CC(F)(F)CN1C(=O)CNC(=O)c1ccnc2ccccc12 [UAMC1110]
cell death induction (in words) (B6 BMDMs; 10, 25 and 40 μM): none of the listed inhibitors triggered a cell death response
cell death induction (in words) (B6^Nlrp1b+ BMDMs [1]; 10, 25 and 40 μM): none of the listed inhibitors triggered a cell death response

Compound: CC(C)[C@H](N)C(=O)N1CCC[C@H]1B(O)O [VBP, Val-boroPro]
time required to reach 30% cytotoxicity (B6 BMDMs; 10, 25 and 40 μM): about 8 h
level of pyroptosis (SG-positive cells relative to Triton X100) (B6 BMDMs; by 6 h, 10, 25 and 40 μM): ~20%
plateau cytotoxicity (B6 BMDMs; by 24 h, 10, 25 and 40 μM): approximately 50%
time to reach the same level of cell death induction (35%) (B6 BMDMs; rebuttal letter, on Figure 1a): approximately 9 h
cell death induction (in words) (B6^Nlrp1b+ BMDMs [1]; 0.1 μM): failed to trigger a cytotoxic response
cell death induction (in words) (B6^Nlrp1b+ BMDMs [1]; 1 μM): sufficient to induce robust pyroptosis
time to reach 30% half-maximal level of pyroptosis (B6^Nlrp1b+ BMDMs [1]): ≤ 3 h
time to reach half-maximal induction of pyroptosis (35% cell death in the total cell population) (B6^Nlrp1b+ BMDMs [1]; rebuttal letter, on Figure 1a): about 3 hours
caspase-1 maturation to p20 (in words) (B6^Nlrp1b+ BMDMs [2]): triggered marked caspase-1 cleavage
caspase-1 maturation (in words) (B6^Nlrp1b+ BMDMs [2]; 0.1 μM): failed to induce caspase-1 auto-cleavage
caspase-1 maturation (in words) (B6^Nlrp1b+ BMDMs [2]; 1 μM): sufficient to trigger caspase-1 maturation
secretion of IL-1β and IL-18 (in words) ([3]; 10 or 40 μM, 4, 8 or 24 h): potently released IL-1β
ASC speck formation (in words) (B6^Nlrp1b+ BMDMs [4]): marked ASC speck formation
reduction of maximal level of pyroptosis compared with ASC-sufficient B6^Nlrp1b+ macrophages (B6^Nlrp1b+ASC^−/− BMDMs [5]): about 50%
caspase-1 maturation (in words) (B6^Nlrp1b+ASC^−/− BMDMs [6]): blunted
cell death (in words) [7]: remained alive and were fully rescued from apoptosis and pyroptosis induction
caspase-8 cleavage (in words) [13]: marked ASC-dependent caspase-8 cleavage
apoptosis induction (in words) [8]: potently induce apoptosis
cytotoxic response (in words) (J774.A1 cells): elicited a swift and robust cytotoxic response

caspase-1 maturation to p20 (in words) (B6^Nlrp1b+ BMDMs [2]): failed to elicit caspase-1 maturation
Compound: CC(=O)N[C@H](C(=O)N1CCC[C@H]1B(O)O)C(C)C [aVBP]
cell death induction (in words) (B6 BMDMs; 10, 25 and 40 μM): failed to induce cytotoxicity
cell death induction (in words) (B6^Nlrp1b+ BMDMs [1]; 10, 25 and 40 μM): failed to induce cytotoxicity
secretion of IL-1β and IL-18 (in words) ([3]; 10 or 40 μM, 4, 8 or 24 h): failed to induce cytokine secretion

Slope factor (human DPP9 [9]; [14]): 1.4 ± 0.2
Slope factor (human DPP9 [9]; calibration curve in medium): 1.33 ± 0.08
Inhibition (human DPP9 [9]; [15]): 2.7%
Inhibition (human DPP9 [9]; [16]): 71%
Inhibitor in lysate (human DPP9 [9]): 0.3 µM
Inhibitor in medium (human DPP9 [9]): 3.2 µM
attenuation in ability to inhibit DPP9 activity in vitro (human DPP9 [9]; relative to VBP): more than 100 fold
IC50 (human DPP9 [10]; [17]): 1600 ± 100 nM
IC50 (human DPP9 [10]; [18]): 1700 ± 80 nM
Compound: CC(C)[C@@H]1[NH2+][B-](O)(O)[C@@H]2CCCN2C1=O [cVBP]
cell death induction (in words) (B6 BMDMs; 10, 25 and 40 μM): failed to induce cell death
cell death induction (in words) (B6^Nlrp1b+ BMDMs [1]; 10, 25 and 40 μM): induced significant pyroptosis
caspase-1 maturation to p20 (in words) (B6^Nlrp1b+ BMDMs [2]): caspase-1 p20 cleavage was detected only in lysates of macrophages that had been treated with the highest concentration (40 μM)
secretion of IL-1β and IL-18 (in words) ([3]; 10 μM): less efficient in eliciting extracellular secretion of IL-1β and IL-18
secretion of IL-1β and IL-18 (in words) ([3]; 40 μM): triggered substantial extracellular release of IL-1β and IL-18

Compound: N[C@@H](CC(=O)N1CCn2c(nnc2C(F)(F)F)C1)Cc1cc(F)c(F)cc1F [sitagliptin]
cell death induction (in words) (B6 BMDMs; 10, 25 and 40 μM): none of the listed inhibitors triggered a cell death response
cell death induction (in words) (B6^Nlrp1b+ BMDMs [1]; 10, 25 and 40 μM): none of the listed inhibitors triggered a cell death response

Reference: PMC6362307, “DPP8/DPP9 inhibition elicits canonical Nlrp1b inflammasome hallmarks in murine macrophages” (Life Science Alliance, 2019)
